Test results reported in patent US6777176B1, “Target system” (priority 1997, dated 2004).
Residues, ends and D or L forms follow the SMILES beside them. No end group written: not given here.

target: T1, enzyme I (Escherichia coli, UniProt P08839); assay: biochemical; type: biochemical, E. coli; settings: in vitro PTS activity, purified HPr, enzyme I and IIGlcNAc, 30 min at 37° C.; Table I; read-out: inhibition IC50
T1 construct: made in house
From the text: (d) Inhibition of in vitro PTS activity. The inhibitory activity of soluble compounds can be measured quantitatively in the sugar phospbotransferase assay in the presence of the purified PTS proteins and with [^14C]GlcNAc ([^14C]N-acetyl-glucosamine) or [^14C]Glc ([[…] as terminal phosphate acceptor (Erni et al., 1982 J. Biol. Chem. 257:13726-13730).
Inhibition of phosphotransferase activity by soluble peptides. This assay measures the inhibition of enzyme I dependent sugar phosphorylation activity. […] The purified N-acetylglucosamine transporter (II^GlcNAc) of E. coli (Mukhija and Erni, 1996) was used as the sugar specific component. The reaction mixture contained per 100 μl, 100 μg phosphatidyl glycerol from egg yolk (Sigma), 50 mM KPi, pH 7.5, 2.5 mM dithiothreitol, 2.5 mM NaF, 5 MM MgCl2, 1 mM phosphoenolpyruvate (potassium salt, Sigma), 0.5 mM [U-^14C]GlcNAc (New England Nuclear; 56.3 mCi/mmol, diluted to 1000 cpm/nmol), and 3 μM each of purified HPr and enzyme I (Mao et al., 1995 J. Biol. Chem. 270:5258-5265). The reaction was started by addition of 0.1 μg of II^GlcNAc. After incubation for 30 min at 37° C., the reaction was stopped by adding 1 ml ice-cold water. GlcNAc-6-Phosphate was separated from free Glc-NAc by anion-exchange chromatography on AG-1-X2 (50-100 mesh, Biorad). Activity is expressed as nmoles of sugar-P formed after 30 min. The HPr concentration was adjustedsuch that it was rate limiting in the overall phosphotransferase reaction. The inhibitory peptides were added to concentrations of 25 μm to 10 mM. Phosphorylation of GlcNAc in the absences of peptide was taken as 100%.

Molecule	IC50 [mM]
CSCC[C@H](N)C(=O)N[C@@H](CCCNC(=N)N)C(=O)N[C@@H](CC(C)C)C(=O)N[C@@H](CC(C)C)C(=O)N[C@@H](CCCCN)C(=O)N[C@H](C(=O)N[C@@H](CC(C)C)C(=O)N[C@@H](CS)C(=O)N[C@@H](Cc1ccccc1)C(=O)NCC(=O)N[C@@H](CC(C)C)C(=O)N[C@@H](CS)C(=O)NCC(=O)O)[C@@H](C)O [compound 18] (H-MRLLKTLCFGLCG-OH; N-terminus and C-terminus assumed)	3.5
CSCC[C@H](NC(C)=O)C(=O)N[C@@H](CCCNC(=N)N)C(=O)N[C@@H](CC(C)C)C(=O)N[C@@H](CC(C)C)C(=O)N[C@@H](CCCCN)C(=O)N[C@H](C(=O)N[C@@H](CC(C)C)C(=O)N[C@@H](CS)C(=O)N[C@@H](Cc1ccccc1)C(=O)N[C@H](C(=O)NCC(=O)N[C@@H](CC(C)C)C(=O)N[C@@H](CS)C(=O)NCC(=O)O)C(C)C)[C@@H](C)O [compound 19] (Ac-MRLLKTLCFVGLCG-OH)	> 10

same assay, conditions: peptides from support-based combinatorial libraries; Table 2

Molecule	inhibition IC50
KKFALRK [compound 21]	none

target: T1, enzyme I; assay: Pyruvate formation coupled to lactate dehydrogenase (uncoupling / phosphatase activity); type: biochemical, E. coli; settings: Table 2
From the text: The assay can be performed in microtiter plates and quantitated with a microplate photoreader. Another assay to monitor phosphatase activity of soluble compounds is based on the detection of pyruvate which is continuously produced from phosphoenolpyruvate whenever enzyme I is dephosphorylated. The enzyme I-specific phosphatase activity of soluble compounds can be detected from the pyruvate burst. The rate of pyruvate formation is monitored with lactate dehydrogenase and NADH. The assay can be performed in microtiter plates and quantitated with a microplate photoreader.

Molecule	uncoupling P1/peptide/h [P1/peptide/h]
KKWHRRKK [compound 26]	0.29
KKWHLRKR [compound 24]	0.3
KKFDLRK [compound 22, KKFDLRK]	0.05
KGWHKRKK [compound 25]	0.23
KKFHIRKR [compound 28]	0.31
HPr protein: small (9 kD) soluble phosphorylcarrier protein HPr, natural phosphoryl acceptor of enzyme I	2.70
KKFHLRK [compound 20, KKFHLRK]	0.49
XXKKWHLRKRXX [compound 23]	0.43
KKWHKRKK [compound 27]	0.215

same assay, conditions: μM NADH consumed per μM peptide per one hour multiplied by the IC50 (μM)

Molecule	uncoupling P1/peptide (x IC50/h)
RIHFIPRRGR [compound 7]	39.6
KISRHGKRGK [compound 5]	1.9
KMSRHRKPGA [compound 3]	22.2
GLRGKTRVHYLVLG [peptide 1]	3.2
SGRKSTRVHHWLLVL [compound 2]	6.6
MSRHRN [compound 16, MSRHRN]	143.8
KISRHGRPTG [compound 6]	479.3
Ac-DGARLHYLF [compound 10]	15.2
DGARLHYLF [compound 9]	132.3
RLHYLF [compound 8, RLHYLF]	64.2

test system: E. coli K-12 UT580; assay: Growth inhibition assay, filter discs on LB soft agar; type: cell-based; settings: area of clear zone around filter disc, over night at 37° C.
Method: FIG. 4. Growth inhibition of E. coli K12 UT580.
Growth inhibition assay. […] To each filter was added 10 μl of one of the different peptide stock solutions (20 μM to 80 μM). […] Compare FIG. 4 and Table I on the following two pages.

Molecule	growth inhibition (area/μM)
RIHFIPRRGR [compound 7]	0.77
RHYLLF [compound 13, RHYLLF]	0.83
RHITLF [compound 15, RHITLF]	0.27
GLRGKTRVHYLVLG [peptide 1]	3.65
SGRKSTRVHHWLLVL [compound 2]	3.05
RHWSIF [compound 11, RHWSIF]	1.30
RLHYLF [compound 8, RLHYLF]	0.90

test system: not listed separately; assay: Growth inhibition MIC (Table 2); type: cell-based; settings: not given

Molecule	growth inhibition MIC [µM]
XXKKWHLRKRXX [compound 23]	44.7

target: T2, PTS Enzyme I (Escherichia coli, UniProt P08839); assay: Inhibition of sugar uptake assay (enzyme I dependent GlcNAc phosphorylation), low molecular weight compounds; type: biochemical, E. coli; settings: compounds at 25-200 μM, DMSO control taken as 100%; read-out: Activity against PTS Enzyme I IC50
T2 construct: made in house
From the text: To find inhibitors of Enzyme I of the PTS by high throughput screening, an in vitro assay based on spectrophotometric read out at 340 nm has been set up. The assay comprises of three major components: purified enzyme I in catalytic amounts, PEP as the phosphoryl donor substrate, and purified HPr as the phosphoryl acceptor substrate. The assay couples the formation of pyruvate from PEP with its reduction to lactate, catalyzed by lactate dehydrogenase. The disappearance of NADH, cofactor required by lactate dehydrogenase, is monitored colorimetrically at 340 nm. The assay is done in a U-shaped microtiter plate format, and quantitation is done using microplate absorbance reader.
Reaction mixtures, each 100 μl, are used in the assay. Each reaction mixture contains 0.8 mM PEP, 0.2 mM NADH, 3 μg lactate dehydrogenase (Boehringer Mannheim), 50 mM KPi pH=7.5, 2.5 mM dithiothreitol, 2.5 mM NaF, 5 mM MgCl2, and between 25 and 200 μM of one of the organic compounds to be tested. […]
Once the inhibitors of Enzyme I of the PTS are identified by high throughput screening, inhibition of enzyme I dependent sugar phosphorylation activity is measured with the inhibition of sugar uptake assay detailed below.
This assay measures the inhibition of enzyme I dependent sugar phosphorylation activity. […] Activity is expressed as nmoles of sugar-P formed after 30 min. […]

Molecule	IC50 [µM]
Cc1cc(-c2onc(C)c2C(=O)Sc2ccc(Cl)cc2)no1 [5,3′-Dimethyl-[3,5′]-biisoxazolyl-4′-carbothioic acid-S-(4-chloro-phenyl) ester]	50
O=C1NN=C(c2ccccc2)CC1Cc1ccc(O)cc1 (centres unmarked) [4-(4-Hydroxy-benzyl)-6-phenyl-4,5-dihydro-2H-pyridazin-3-one]	20
